Test results from ChEMBL document CHEMBL4507276 (2021).

Tests used:
[1] = target: MAP kinase-interacting serine/threonine-protein kinase 1 (Homo sapiens) (UniProt Q9BUB5); assay: MKNK1 Invitrogen selectivity data (BI); settings: Compound concentration 3.0 uM
[2] = target: Phosphatidylinositol 3-kinase catalytic subunit type 3 (Homo sapiens) (UniProt Q8NEB9); assay: PIK3C3 Invitrogen selectivity data (BI); settings: Compound concentration 3.0 uM
Phosphatidylinositol 3-kinase catalytic subunit type 3 (Homo sapiens), sequence (Q8NEB9 whole entry): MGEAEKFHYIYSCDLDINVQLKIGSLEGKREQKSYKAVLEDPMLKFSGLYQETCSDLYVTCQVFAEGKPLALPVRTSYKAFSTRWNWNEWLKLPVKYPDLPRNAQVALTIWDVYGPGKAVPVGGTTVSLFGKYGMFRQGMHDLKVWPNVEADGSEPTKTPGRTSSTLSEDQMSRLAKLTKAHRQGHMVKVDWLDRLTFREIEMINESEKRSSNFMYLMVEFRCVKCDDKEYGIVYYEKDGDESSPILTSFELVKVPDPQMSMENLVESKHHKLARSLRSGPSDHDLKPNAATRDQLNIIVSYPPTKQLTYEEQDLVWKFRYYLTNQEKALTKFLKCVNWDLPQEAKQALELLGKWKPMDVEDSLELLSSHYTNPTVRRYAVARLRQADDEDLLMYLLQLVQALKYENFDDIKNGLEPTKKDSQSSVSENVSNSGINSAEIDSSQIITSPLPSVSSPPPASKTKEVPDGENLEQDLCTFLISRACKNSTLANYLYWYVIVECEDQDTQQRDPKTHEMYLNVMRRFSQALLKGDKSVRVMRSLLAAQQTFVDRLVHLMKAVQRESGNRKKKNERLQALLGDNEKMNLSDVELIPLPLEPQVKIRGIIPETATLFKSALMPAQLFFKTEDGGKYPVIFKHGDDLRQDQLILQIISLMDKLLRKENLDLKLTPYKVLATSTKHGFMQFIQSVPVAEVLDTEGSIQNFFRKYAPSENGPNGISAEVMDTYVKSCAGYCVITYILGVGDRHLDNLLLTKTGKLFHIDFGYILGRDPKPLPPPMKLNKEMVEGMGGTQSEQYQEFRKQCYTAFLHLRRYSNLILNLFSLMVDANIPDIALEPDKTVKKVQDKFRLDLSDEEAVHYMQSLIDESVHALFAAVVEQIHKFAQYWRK

MAP kinase-interacting serine/threonine-protein kinase 1 (Homo sapiens), sequence (Q9BUB5 whole entry, looked up): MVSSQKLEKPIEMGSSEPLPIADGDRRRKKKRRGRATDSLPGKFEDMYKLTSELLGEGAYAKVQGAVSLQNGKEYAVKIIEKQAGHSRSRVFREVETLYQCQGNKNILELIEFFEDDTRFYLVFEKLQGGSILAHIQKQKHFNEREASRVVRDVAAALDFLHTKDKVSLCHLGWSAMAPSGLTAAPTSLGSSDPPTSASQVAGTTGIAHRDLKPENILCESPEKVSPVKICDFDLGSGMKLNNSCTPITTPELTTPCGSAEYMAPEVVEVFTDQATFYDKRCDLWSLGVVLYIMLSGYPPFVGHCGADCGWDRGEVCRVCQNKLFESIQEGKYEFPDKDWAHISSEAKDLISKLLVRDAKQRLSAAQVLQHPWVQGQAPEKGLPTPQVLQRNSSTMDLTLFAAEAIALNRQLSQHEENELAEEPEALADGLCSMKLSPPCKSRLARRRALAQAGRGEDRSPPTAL

Work on `CN(C)C(=O)Cn1cc(-c2nc([C@@](C)(c3ccc(-c4cnc(N)nc4)cc3)C3CC3)no2)cn1` [BI 665915] yielded a residual activity [1] of 99% and a residual activity [2] of 94.5%.
